Laboratory results from the supplement of paper PMC10331698.
± gives the standard deviation of the averaged measurements.

Experiments:
Experiment in all cases: level (log10 ratio to DMSO vehicle control); higher = higher biomarker level / cell amount than vehicle control
Settings in all cases: in DMSO
[1] = compound: O=P(O)(O)CCC(F)(F)C(F)(F)C(F)(F)C(F)(F)C(F)(F)C(F)(F)F [2-(Perfluorohexyl)ethylphosphonic acid]
Method: (§1)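 BioMAP Diversity Plus panel of 12 human primary cell co-culture systems (3C, 4H, LPS, SAg, BT, BF4T, BE3C, CASM3C, HDF3CGF, KF3CT, MyoF, Mphg). Compounds were added 1 h before stimulation and left for 24 h (MyoF 48 h; BT 72 h for soluble read-outs or 6 d for IgG). Biomarkers were read by ELISA, cytotoxicity by SRB, PBMC viability and proliferation by Alamar Blue. Each well value was divided by the mean of 8 DMSO control wells on the same plate and log10 transformed; duplicate blinded samples were tested at 4 concentrations.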

[2] = compound: OCC(F)(F)C(F)(F)C(F)(F)C(F)(F)C(F)(F)C(F)(F)C(F)(F)C(F)(F)CO [1H,1H,10H,10H-Perfluorodecane-1,10-diol]
Method: as §1

[3] = compound: OCCCCC(F)(F)C(F)(F)C(F)(F)C(F)(F)F [4:4 Fluorotelomer alcohol]
Method: as §1

Row | Test System | level (log10) ([1]; 6700 nM) | level (log10) ([1]; 20000 nM) | level (log10) ([1]; 60000 nM) | level (log10) ([2]; 6700 nM) | level (log10) ([2]; 20000 nM) | level (log10) ([2]; 60000 nM) | level (log10) ([3]; 6700 nM) | level (log10) ([3]; 20000 nM) | level (log10) ([3]; 60000 nM)
1 | BE3C:MMP-1 | 0.002 ± 0.017 | 0.0005 ± 0.026 | 0.052 ± 0.075 | 0.054 ± 0.0071 | 0.103 ± 0.042 | 0.137 | 0.0005 ± 0.03 | 0.006 ± 0.02 | 0.022 ± 0.05
2 | HDF3CGF:Collagen I | -0.016 ± 0.0042 | -0.0365 ± 0.005 | -0.0865 ± 0.09 | 0.029 ± 0.0014 | -0.01 ± 0.025 | 0.035 | -0.0175 ± 0.067 | -0.0175 ± 0.071 | 0.031 ± 0.13
3 | lMphg:SRB | -0.006 ± 0.0071 | -0.0025 ± 0.013 | 0.009 ± 0.017 | -0.0025 ± 0.013 | -0.014 ± 0.0057 | -1.09 | -0.015 ± 0.0028 | -0.0055 ± 0.0035 | 0.004 ± 0.033
4 | 3C:CCL2/MCP-1 | 0.001 ± 0.0042 | -0.0035 ± 0.019 | 0.019 ± 0.054 | -0.0015 ± 0.005 | 0.0055 ± 0.00071 | 0.018 | 0.004 ± 0.014 | -0.0205 ± 0.011 | -0.0105 ± 0.037
5 | MyoF:bFGF | -0.0415 ± 0.011 | -0.0285 ± 0.00071 | -0.0255 ± 0.021 | -0.007 ± 0.011 | 0.0005 ± 0.00071 | 0.005 | 0.0035 ± 0.0035 | -0.009 ± 0.021 | 0.005 ± 0.042
6 | MyoF:Collagen IV | -0.038 ± 0.0071 | -0.019 ± 0.03 | -0.0405 ± 0.0021 | -0.0265 ± 0.0035 | -0.013 ± 0.0071 | 0.156 | 0.002 ± 0.03 | -0.009 ± 0.044 | 0.0145 ± 0.063
7 | lMphg:CCL3/MIP-1alpha | 0.035 ± 0.044 | 0.019 ± 0.028 | 0.0315 ± 0.019 | -0.0375 ± 0.005 | -0.02 ± 0.016 | -0.473 | -0.0205 ± 0.0035 | -0.041 ± 0.021 | -0.0365 ± 0.022
8 | CASM3C:CD141/Thrombomodulin | 0.027 ± 0.017 | 0.0185 ± 0.011 | 0.016 ± 0.0042 | -0.0225 ± 0.028 | -0.0335 ± 0.04 | 0.026 | -0.0065 ± 0.012 | -0.0065 ± 0.0078 | 0.0145 ± 0.032
9 | CASM3C:Proliferation | -0.0385 ± 0.0064 | -0.05 ± 0.013 | -0.06 ± 0.0085 | -0.011 ± 0.021 | -0.0215 ± 0.00071 | -0.324 | -0.01 ± 0.0099 | -0.0345 ± 0.005 | -0.0075 ± 0.057
10 | MyoF:Collagen I | -0.0025 ± 0.005 | -0.0045 ± 0.0021 | 0.0085 ± 0.011 | -0.0105 ± 0.015 | -0.0275 ± 0.013 | -0.109 | 0.004 ± 0.0014 | -0.002 ± 0.016 | 0.0065 ± 0.026
11 | KF3CT:CXCL8/IL-8 | -0.021 ± 0.0071 | 0.002 ± 0.0014 | 0.0355 ± 0.0035 | -0.006 ± 0.021 | 0.0055 ± 0.028 | -0.097 | 0.0185 ± 0.037 | -0.006 ± 0.023 | 0.0205 ± 0.036
12 | BE3C:MMP-9 | -0.019 ± 0.0042 | -0.0135 ± 0.012 | 0.007 ± 0.034 | 0 ± 0.0071 | -0.041 ± 0.0042 | -0.14 | 0.0035 ± 0.032 | 0.014 ± 0.028 | 0.031 ± 0.045
13 | lMphg:CD106/VCAM-1 | -0.001 ± 0.0028 | 0.006 ± 0.016 | -0.002 ± 0.038 | -0.008 ± 0.0014 | -0.0075 ± 0.029 | -0.802 | -0.0195 ± 0.005 | -0.0045 ± 0.019 | -0.0025 ± 0.042
